# Values quoted from earlier work in PMC5760531, “Action Potential Recording and Pro-arrhythmia Risk Analysis in Human Ventricular Trabeculae” (Frontiers in Physiology, 2018).
# Assays:
# [1] = cited from earlier work
# hERG = conditions: read-out: IC50 for hERG; previous experiments; ref Qu and Vargas, 2015; cited from earlier work
structure (smiles),measurement,setting,value
"Nc1nnc(-c2cccc(Cl)c2Cl)c(N)n1 [LAMOTRIGINE, Lamotrigine]",Free ETPC,[1]; human free (unbound) effective therapeutic plasma concentration used to calculate multiples,17 µM
same,free therapeutic exposure,"[1]; human, ref Dixon et al., 2008",approximately 17 μM
same,IC50,hERG,110 µM
